Assay results: patent publication US4416885A, “Use of isopropylaminopyrimidine in the chemotherapy of muscular dystrophy, myopathy and myotonia” (priority 1982, dated 1983)

How the values were obtained:
[1] = test system: normal 412 muscle explants; test: Microtubule complexes in muscle explants of injected normal chickens; format: in vivo, chicken
Excerpt: Essentially, these experiments were divided into three subgroups, taken from the previous Table:
413A, 413B, 412A, 412B: All were sacrificed after 4 injections and muscle explants placed in culture.
413C, 412C: All were sacrificed after 8 injections and muscle explants were placed in culture.
413D, 412D: All were sacrificed after 10 injections and muscle explants placed in culture.
All explants were placed in CMRL culture medium containing 5% horse serum, 15% fetal bovine serum and 1% antibiotics and allowed to grow for 5-7 days before being fixed and observed for the presence or absence of microtubules. No IAPP was added to the culture medium during the 5-7 days in culture.

[2] = test system: plasma PK (pyruvate kinase); test: Plasma PK; format: in vivo, chicken; conditions: 300 mg/Kg i.p. three times weekly for 30 days, day 28 ex ovo
Carrier monocytes = test: Effect on human monocytes in culture (flat cells), carrier; format: cell-based; conditions: carrier monocytes + IAPP, six individuals, cultured 5-7 days; without IAPP 35.3%; preliminary
Excerpt: In the experiments adding IAPP to such cultures, the preliminary results were as follows: […]

[3] = test system: plasma PK (pyruvate kinase); test: Plasma PK; format: in vivo, chicken
Procedure: (§1) Chemotherapy was assessed by application of seven different parameters: physical tests of muscular disability, namely the flip test and wing apposition (W.A.) measurements; biochemical assays of serum and muscle enzume levels of creatine phosphokinase (CPK), pyruvate kinase (PK) and acetylcholinesterase (AChE); and histological comparisons of treated and untreated muscle. Toxicity studies (weight loss, etc.) were also used. A very comprehensive profile of the drug was thus obtained which related to all the known, highly characteristic features of the disease which are applicable to both the animal model and the human.
A massive rise in this enzyme level also occurs in the dystrophic chicken compared to the normal control, as it does in the human disease.
The drug was administered daily in water, injected intra-peritoneally, the amount being adjusted on a weekly basis according to the animal's weight.
Finally, oral therapy with IAPP was undertaken at gradually increasing dosages up to 1 g/Kg/day. The parameters (physical, biochemical and histological) measured previously were again used to test the efficacy of the drug; five different dosages were used orally, each being given for 30-60 days, daily (Tables VII-XI). A total of 75 animals were treated in the current study with IAPP and 70 control animals were used.

dystrophic chickens 413 = test: Experiment 4, weight of dystrophic chickens injected with IAPP; format: in vivo, chicken; conditions: for Weight: 50 mg/Kg
Procedure: (§2) All chickens were injected with 50 mg/Kg IAPP and weighed approximately every second or third day.
A: Control-injected with PBS
(§3) B, C, D: Experimental-injected with 50 mg/Kg IAPP

[4] = test system: dystrophic New Hampshire chickens, line 413; test: Overall assessment of chemotherapy over all parameters measured; format: in vivo, chicken
Procedure: The compound IAPP was tested on dystrophic New Hampshire chickens, line 413, and Imperial College (London, England) sub-line of the original Davis, University of California strain. The chickens are homozygous for muscular dystrophy, the disease appearing with 100% incidence.
as §1, with “human. […]” for “human.”

normal chickens 412 = test: Experiment 4, flip test (25 flips), normal chickens; format: in vivo, chicken
Procedure: as §2, §3

[5] = 200 mg/Kg i.p. daily for 30 days, day 28 ex ovo
[6] = 200 mg/Kg i.p. daily for 30 days, day 56 ex ovo
[7] = 200 mg/Kg i.p. daily for 30 days, day 84 ex ovo
[8] = 300 mg/Kg i.p. daily for 30 days, day 28 ex ovo
[9] = 300 mg/Kg i.p. daily for 30 days, day 56 ex ovo
[10] = 300 mg/Kg i.p. daily for 30 days, day 84 ex ovo
[11] = 300 mg/Kg i.p. three times weekly for 30 days, day 84 ex ovo
[12] = Table VII, oral 200 mg/Kg, 60 days, day 28 ex ovo
[13] = Table VII, oral 200 mg/Kg, 60 days, day 35 ex ovo
[14] = oral 300 mg/Kg daily, day 28 ex ovo
[15] = oral 300 mg/Kg daily, day 35 ex ovo
[16] = oral 450 mg/Kg daily for 45 days, day 35 ex ovo
[17] = oral 450 mg/Kg daily for 45 days, day 50 ex ovo
[18] = oral 600 mg/Kg daily, day 35 ex ovo
[19] = oral 600 mg/Kg daily, day 50 ex ovo
[20] = oral 1 g/Kg daily, day 28 ex ovo
[21] = oral 1 g/Kg daily, day 35 ex ovo
[22] = 200 mg/Kg i.p. daily for 28 days
[23] = oral 1 g/Kg daily, first four weeks

CC(C)Nc1ncccn1.O=P(O)(O)O [IAPP, 2-isopropylaminopyrimidine orthophosphate]
% Full Complexes Microtubules ([1]; 412B, Subgroup A, after 4 injections of 50 mg/Kg, 412A control 86%): 73%
% Full Complexes Microtubules ([1]; 412C, Subgroup B, after 8 injections of 50 mg/Kg): 76%
% Full Complexes Microtubules ([1]; 412D, Subgroup C, after 10 injections of 50 mg/Kg): 80%
PK [2]: 499
% Flat Cells (Carrier monocytes): 50.0%
PK [3, 5]: 377
PK, % change from control [3, 5]: -47%
PK [3, 6]: 1612
PK, % change from control [3, 6]: -45%
PK [3, 7]: 2949
PK, % change from control [3, 7]: -36%
PK [3, 8]: 429
PK, % change from control [3, 8]: -40%
PK [3, 9]: 2447
PK, % change from control [3, 9]: -16%
PK [3, 10]: 5282
PK, % change from control [3, 10]: +15%
PK, % change from control ([3]; 300 mg/Kg i.p. three times weekly for 30 days, day 28 ex ovo): -30%
PK ([3]; 300 mg/Kg i.p. three times weekly for 30 days, day 56 ex ovo): 2486
PK [3, 11]: 3766
PK, % change from control [3, 11]: -18%
% PK Change vs untreated dystrophic controls ([3]; Exp. 2, 40 mg/Kg i.p. daily, day 14-20): -38%
% PK Change vs untreated dystrophic controls ([3]; Exp. 2, 40 mg/Kg i.p. daily, day 21-27): -57%
% PK Change vs untreated dystrophic controls ([3]; Exp. 2, 40 mg/Kg i.p. daily, day 28-34): -60%
% PK Change vs untreated dystrophic controls ([3]; Exp. 2, 40 mg/Kg i.p. daily, day 35-41): -48%
% PK Change vs untreated dystrophic controls ([3]; Exp. 2, 40 mg/Kg i.p. daily, day 42-48): -58%
% PK Change vs untreated dystrophic controls ([3]; Exp. 2, 40 mg/Kg i.p. daily, day 56-62): -42%
% PK Change vs untreated dystrophic controls ([3]; Exp. 2, 40 mg/Kg i.p. daily, day 63-71): -41%
% PK Change vs untreated dystrophic controls ([3]; Exp. 3, 70 mg/Kg i.p. daily, day 21-27): -32%
% PK Change vs untreated dystrophic controls ([3]; Exp. 3, 70 mg/Kg i.p. daily, day 28-34): -65%
PK [3, 12]: 1925
PK, % change from control [3, 12]: -4%
PK [3, 13]: 2150
PK, % change from control [3, 13]: +6%
PK [3, 14]: 2010
PK, % change from control [3, 14]: +1%
PK [3, 15]: 907
PK, % change from control [3, 15]: +28%
PK [3, 16]: 2520
PK, % change from control [3, 16]: +0.6%
PK [3, 17]: 3891
PK, % change from control [3, 17]: +7%
PK [3, 18]: 1639
PK, % change from control [3, 18]: -36%
PK [3, 19]: 2824
PK, % change from control [3, 19]: -22%
PK [3, 20]: 1080
PK, % change from control [3, 20]: -48%
PK [3, 21]: 1812
PK, % change from control [3, 21]: -50%
Toxic side effect (dystrophic chickens 413; Exp. 4, 50 mg/Kg injected, normal and dystrophic chickens): There did not appear to be a toxic side effect
Weight (dystrophic chickens 413; Exp. 4, 413B, day 1): 48.3 GRAMS
Weight (dystrophic chickens 413; Exp. 4, 413B, day 4): 51.2 GRAMS
Weight (dystrophic chickens 413; Exp. 4, 413B, day 7): 56.7 GRAMS
Weight (dystrophic chickens 413; Exp. 4, 413B, day 9): 58.1 GRAMS
Weight (dystrophic chickens 413; Exp. 4, 413C, day 1): 36.9 GRAMS
Weight (dystrophic chickens 413; Exp. 4, 413C, day 4): 44.4 GRAMS
Weight (dystrophic chickens 413; Exp. 4, 413C, day 7): 49.9 GRAMS
Weight (dystrophic chickens 413; Exp. 4, 413C, day 9): 45.2 GRAMS
Weight (dystrophic chickens 413; Exp. 4, 413C, day 11): 53.2 GRAMS
Weight (dystrophic chickens 413; Exp. 4, 413C, day 14): 77.4 GRAMS
Weight (dystrophic chickens 413; Exp. 4, 413C, day 16): 90.5 GRAMS
Weight (dystrophic chickens 413; Exp. 4, 413C, day 17): 104.8 GRAMS
Weight (dystrophic chickens 413; Exp. 4, 413D, day 1): 44.5 GRAMS
Weight (dystrophic chickens 413; Exp. 4, 413D, day 4): 51.2 GRAMS
Weight (dystrophic chickens 413; Exp. 4, 413D, day 7): 59.8 GRAMS
Weight (dystrophic chickens 413; Exp. 4, 413D, day 9): 56.5 GRAMS
Weight (dystrophic chickens 413; Exp. 4, 413D, day 11): 65.4 GRAMS
Weight (dystrophic chickens 413; Exp. 4, 413D, day 14): 93.7 GRAMS
Weight (dystrophic chickens 413; Exp. 4, 413D, day 16): 115.1 GRAMS
Weight (dystrophic chickens 413; Exp. 4, 413D, day 20): 161.3 GRAMS
Weight (dystrophic chickens 413; Exp. 4, 413D, day 22): 210.2 GRAMS
Weight (dystrophic chickens 413; Exp. 4, 413D, day 25): 240.7 GRAMS
Physical performance [4, 22]: not significantly improved
Reduction in plasma enzyme levels [4, 22]: large reduction in plasma enzume levels
Persistence of enzyme reduction after injections ceased ([4]; 200 mg/Kg i.p., CPK, PK, AChE reduced from control values): 56 days
Plasma enzyme activities ([4]; 300 mg/Kg i.p. daily): greatly reduced
Persistence of reduced plasma enzyme levels after treatment ceased ([4]; 300 mg/Kg i.p. three times weekly): 56 days
Reductions in plasma enzyme levels vs daily therapy ([4]; 300 mg/Kg three times weekly): very comparable reductions in plasma enzyme levels
Difference between treated and dystrophic control animals, parameters measured ([4]; Exp. 1, 30 mg/Kg i.p. daily): no significant differents
Flip number and wing apposition ([4]; Exp. 2, 40 mg/Kg): significant improvement
Effect on all parameters measured ([4]; Exp. 2, 40 mg/Kg i.p. daily): significant effect of IAPP on all parameters measured
CPK, PK and AChE enzyme levels ([4]; Exp. 2, 40 mg/Kg, effect declining at end of 10-week experiment): reduced dramatically
minimal effective dose ([4]; Gallus gallus, ip, read-out: Minimum concentration found effective): 40 mg/kg
Effect on physical performance parameters ([4]; oral 200 mg/Kg, 60 days): no effect
Enzyme levels and physical performance ([4]; oral 600 mg/Kg): significant reductions in enzyme levels and improvements in physical performance
Physical performance parameters [4, 23]: greatly improved
Reduction in enzyme levels [4, 23]: highly significant reduction in enzyme levels
Effective oral dosage ([4]; oral, daily for 35 days, chicken): 1 g/kg
Fatigue in flip test (normal chickens 412; 412D, day 25, 50 mg/Kg): did not fatigue
Flip test outcome (normal chickens 412; normal drug injected chickens, 50 mg/Kg): able to pass the flip test
